Values quoted from earlier work, collected in patent publication US6670392B2, “Compositions and methods for the prevention and treatment of human prostate cancer” (Bioadvantex Pharma Inc., priority 2001, dated 2003).

Settings: synthetic dl-α-tocopherol as standard; cited from earlier work

SMILES: Cc1c(C)c2c(c(C)c1O)CC[C@@](C)(CCC[C@H](C)CCC[C@H](C)CCCC(C)C)O2 [d-α-tocopherol]
- bioactivity relative to synthetic dl-α-tocopherol: 1.49 times
